Laboratory results: ChEMBL document CHEMBL5375953, “Discovery of Biaryl Amide Derivatives as Potent, Selective, and Orally Bioavailable RORγt Agonists for Cancer Immunotherapy” (J Med Chem, 2023)

What was measured:
[1] = Metabolic Stability in human liver microsome assessed as half life at […] measured upto 60 mins by HPLC-MS/MS analysis; type: ADME; conditions: liver microsomes
[2] = Metabolic Stability in human liver microsome assessed as microsomal intrinsic clearance at […] measured upto 60 mins by HPLC-MS/MS analysis; type: ADME; conditions: liver microsomes, read-out: CLH
[3] = Metabolic Stability in rat liver microsome assessed as half life at […] measured upto 60 mins by HPLC-MS/MS analysis; type: ADME; conditions: liver microsomes
[4] = Metabolic Stability in rat liver microsome assessed as microsomal intrinsic clearance at […] measured upto 60 mins by HPLC-MS/MS analysis; type: ADME; conditions: liver microsomes, read-out: CLH
[5] = Metabolic Stability in dog liver microsome assessed as microsomal intrinsic clearance at […] measured upto 60 mins by HPLC-MS/MS analysis; type: ADME, Canis lupus familiaris; conditions: liver microsomes, read-out: CLH
[6] = Metabolic Stability in rat liver microsome assessed as intrinsic clearance at […] measured upto 60 mins by HPLC-MS/MS analysis; type: ADME; conditions: microsomes, 1 h
[7] = target: T1, Nuclear receptor ROR-alpha (Homo sapiens, UniProt P35398); assay: Agonist activity at human Gal4-fused RORalpha expressed in HEK293T cells assessed as luciferase activity incubated for 16 to 20 hrs by Luciferase reporter gene assay; type: cell-based
T1 sequence (P35398 whole entry): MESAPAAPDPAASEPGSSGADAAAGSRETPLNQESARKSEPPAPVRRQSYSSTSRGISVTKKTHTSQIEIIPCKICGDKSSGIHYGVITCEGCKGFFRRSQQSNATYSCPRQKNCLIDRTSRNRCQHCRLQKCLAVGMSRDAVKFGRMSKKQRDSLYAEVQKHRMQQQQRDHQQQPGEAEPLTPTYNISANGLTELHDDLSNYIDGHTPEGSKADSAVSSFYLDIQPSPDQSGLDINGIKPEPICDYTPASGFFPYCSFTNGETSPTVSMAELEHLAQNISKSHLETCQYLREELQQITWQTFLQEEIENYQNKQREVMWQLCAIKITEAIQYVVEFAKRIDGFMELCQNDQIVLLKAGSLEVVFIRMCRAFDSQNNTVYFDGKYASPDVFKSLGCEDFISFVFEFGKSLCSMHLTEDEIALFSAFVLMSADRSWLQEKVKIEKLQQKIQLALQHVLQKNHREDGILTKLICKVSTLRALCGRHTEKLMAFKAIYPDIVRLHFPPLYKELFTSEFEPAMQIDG

[8] = target: T2, Nuclear receptor ROR-beta (Homo sapiens, UniProt Q92753); assay: Agonist activity at human Gal4-fused RORbeta expressed in HEK293T cells assessed as luciferase activity incubated for 16 to 20 hrs by Luciferase reporter gene assay; type: cell-based
T2 sequence (Q92753 whole entry): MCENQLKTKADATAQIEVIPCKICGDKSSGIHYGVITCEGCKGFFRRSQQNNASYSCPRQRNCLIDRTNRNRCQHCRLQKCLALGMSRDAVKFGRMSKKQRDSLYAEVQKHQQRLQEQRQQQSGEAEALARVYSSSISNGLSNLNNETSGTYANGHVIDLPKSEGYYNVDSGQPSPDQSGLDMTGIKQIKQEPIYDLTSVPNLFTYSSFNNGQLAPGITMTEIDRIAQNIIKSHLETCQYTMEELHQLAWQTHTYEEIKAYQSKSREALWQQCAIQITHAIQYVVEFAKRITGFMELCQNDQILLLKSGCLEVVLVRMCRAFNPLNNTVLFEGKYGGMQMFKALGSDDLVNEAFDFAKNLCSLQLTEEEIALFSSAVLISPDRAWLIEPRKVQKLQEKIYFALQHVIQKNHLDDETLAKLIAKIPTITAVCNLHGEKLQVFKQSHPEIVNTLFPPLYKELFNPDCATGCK

[9] = Cmax in CD-1 mouse at 5 mg/kg,po administration measured after 24 hrs by LC-MS/MS analysis; type: ADME, organism-based; set-up: dose 5 mg/kg, time 24 hrs, route po; conditions: in vivo
[10] = Oral bioavailability in CD-1 mouse at 5 mg/kg administration measured after 24 hrs by LC-MS/MS analysis; type: ADME, organism-based; conditions: in vivo
[11] = AUC(infinity) in rat at 1 mg/kg,iv administration measured after 24 hrs by LC-MS/MS analysis; type: ADME, organism-based; set-up: dose 1 mg/kg, time 24 hrs, route iv; conditions: in vivo
[12] = Half life in rat at 5 mg/kg,po administration measured after 24 hrs by LC-MS/MS analysis; type: ADME, organism-based; conditions: in vivo
[13] = Half life in dog at 2 mg/kg,po administration measured after 24 hrs by LC-MS/MS analysis; type: ADME, organism-based, Canis lupus familiaris; conditions: in vivo
[14] = Oral bioavailability in dog at 2 mg/kg administration measured after 24 hrs by LC-MS/MS analysis; type: ADME, organism-based, Canis lupus familiaris; conditions: in vivo
[15] = Toxicity against C57BL/6 mouse xenografted with mouse B16-F10 cells assessed as animal death at 25 to 100 mg/kg,ip administrated on day 7 for 8 days; type: organism-based; conditions: in vivo, 192 h, dose 25-100 mg/kg, time 8 day
[16] = Antitumor activity against mouse Lung adenocarcinoma cell line xenografted in C57BL/6 mouse assessed as tumor growth inhibition at 100 mg/kg,po administrated on day 7 for 12 days relative to control; type: functional; conditions: 288 h, time 12 day, read-out: TGI

## CCS(=O)(=O)c1ccc(CC(=O)Nc2cc(Cl)c(-c3ccc(OC(C)C)c(C#N)c3)c(Cl)c2)cc1
[1]
  half-life: > 2.42 h
[2]
  microsomal CLint: < 9.6 µL/min/mg
[3]
  half-life: > 2.42 h
[4]
  microsomal CLint: < 9.6 µL/min/mg
[5]
  microsomal CLint: < 9.6 µL/min/mg
[6]
  CLH: < 17.3 µL/min/mg
[7]
  EC50: > 10 µM
[8]
  EC50: > 10 µM
[9]
  Cmax: 1810 ng/mL
[10]
  bioavailability: 90.3%
[11]
  AUC(0-inf): 5410 ng·h/mL
[12]
  half-life: 11.4 h
[13]
  half-life: 59.1 h
[14]
  bioavailability: 52.2%
[15]
  Activity: Non-Toxic
[16]
  inhibition in vivo at 100 mg/kg: 49.8%
